Assay results published in patent US9024018B2, “3-substituted-8-substituted-3H-imidazo[5,1-d][1,2,3,5]tetrazin-4-one compounds and their use” (Pharminox Limited, priority 2009, dated 2015).

Columns and labels:
Format in all cases: cell-based
SNB19V = assay: MTT assay for 7-day toxicity, SNB19V glioma cells (vector control, MGMT-); conditions: Glioma cell, 168 h, 7 day MTT assay, glioma line SNB19V
Procedure: (§1) The cell culture techniques were carried out in a Class II microbiological safety cabinet which was swabbed with 70% IMS in distilled water before each use. Glioma cells were routinely cultured in Costar tissue culture flasks in RPMI 1640 liquid medium (containing 0.3 g/L L-glutamine and 2 g/L sodium bicarbonate) supplemented with 10% heat inactivated FBS (55-59° C.) for 1 hour to denature complement proteins which would otherwise evoke a cellular immune response resulting in cell lysis, 1% non-essential amino acids, 50 μg/mL gentamicin and 400 μg/mL G418 (vector selection reagent). Colorectal and melanoma cells were maintained in RPMI 1640 supplemented with 10% FBS. MRC-5 cells were cultured in EMEM+10% FBS, 1% pen/strep, 1% non-essential amino acids, 1% HEPES (1M) and 1% sodium bicarbonate.
(§2) Cells were grown at 37° C. in a humidified incubator in an atmosphere comprising 95% air/5% CO2. Cells were sub-cultured when growth exceeded approximately 80% confluence, normally twice weekly. The medium was aspirated from the flask and approximately 0.8 mL trypsin-EDTA 1× solution added. The cells were re-incubated at 37° C. until they had visibly detached from the flask. The cells were re-suspended in 5 mL medium and 0.5-1 mL was transferred to a new flask (25 cm^2) with 7 mL culture medium. The cells were further incubated at 37° C. To minimize phenotypic drift, cells were disposed of once they had been subcultured 30 times. New batches of cells were thawed rapidly in 37° C. water bath once taken from liquid nitrogen storage and re-suspended in 10 mL of culture medium in a 25 cm^2 flask. Cells were passaged twice to allow normal growth to resume prior to use in experiments.
(§3) Most test compounds, including temozolomide, were prepared as 100 mM stock solutions in DMSO and stored at −20° C. for not more than 6 months.
(§4) MTT Assay for 7-Day Toxicity Assay
(§5) This assay was first described in Mosmann, T., 1983, “Rapid colorimetric assay for cellular growth and survival: Application to proliferation and cytotoxicity assays”, Journal of Immunological Methods, Vol. 65, Nos. 1-2, pp. 55-63.
(§6) Glioma cell lines, SNB19 and U373, both stably transfected with MGMT (i.e., SNB19M and U373M) or their respective vector controls (i.e., SNB19V and U373V); colorectal carcinoma cell lines, HCT116, HT29, and DLD1; melanoma cell line, SKMEL-28; breast cell line, MCF-7; and normal human fetal lung fibroblast cell line, MRC-5; were used at 60-80% confluence, during the logarithmic phase of growth.
(§7) Following harvesting with trypsin/EDTA, cells in suspension were gently syringed through a 23 gauge needle to obtain a near-single cell suspension. Cells were then seeded into 96-well plates at the desired density in 180 μL culture medium if only one test compound was to be added, or in 160 μL if two test compounds were to be added in combination. Cells were allowed to attach overnight by incubation at 37° C. in 95% air/5% CO2. For the 7 day assay, the cell seeding densities for the different cell lines were as follows: SNB19V, SNB19M: 650 cells/well; U373V, U373M: 650 cells/well; SNB19VR, U373VR: 650 cells/well; HCT116, DLD-1, SKMEL-28, MRC-5, MCF-7: 400 cells/well.
(§8) The two peripheral lanes of each plate were used as blank wells (cell free) and filled with 200 μL of medium in order to minimise medium evaporation from the plate. A separate time zero (T0) plate was set up alongside other plates. Serial dilutions in tissue culture medium of a 100 mM stock of test compound were prepared immediately before each assay to ten times the final concentrations required. 20 μL was added to each well (200 μL total media per well) to achieve final concentrations of 0.5 μM, 1 μM, 5 μM, 10 μM, 50 μM, 100 μM, 500 μM, and 1000 μM. A minimum of four wells received the same test compound concentration. To control wells, including those in the T0 plate, 20 μL of medium was added. […]

SNB19M = assay: MTT assay for 7-day toxicity, SNB19M glioma cells (stably transfected with MGMT, MGMT+); conditions: 7 day MTT assay, glioma line SNB19M
Procedure: as §1, §2, §3, §4, §5, §6, §7, §8

U373V = assay: MTT assay for 7-day toxicity, U373V glioma cells (vector control, MGMT-); conditions: 7 day MTT assay, glioma line U373V
Procedure: as §1, §2, §3, §4, §5, §6, §7, §8

U373M = assay: MTT assay for 7-day toxicity, U373M glioma cells (stably transfected with MGMT, MGMT+); conditions: 7 day MTT assay, glioma line U373M
Procedure: as §1, §2, §3, §4, §5, §6, §7, §8

SMILES | GI50 (SNB19V) [µM] | GI50 (SNB19M; Glioma cell, 168 h) [µM] | GI50 (U373V; Glioma cell, 168 h) [µM] | GI50 (U373M; Glioma cell, 168 h) [µM] | GI50 (SNB19M) [µM] | GI50 (U373V) [µM] | GI50 (U373M) [µM]
C[S+]([O-])Cn1nnc2c(-c3nc(-c4ccsc4)cs3)ncn2c1=O (centres unmarked) [WW-033, 3-(methylsulfinylmethyl)-8-(4-(thiophen-3-yl)thiazol-2-yl)imidazo[5,1-d][1,2,3,5]tetrazin-4(3H)-one] | < 45 | < 70 | < 75 | < 60 | – | – | –
COCn1nnc2c(/C=C/c3cccs3)ncn2c1=O [MM-004, (E)-3-(Methoxymethyl)-8-(2-(thiophen-2-yl)vinyl)imidazo[5,1-d][1,2,3,5]tetrazin-4(3H)-one] | 4.5 | 5.1 | 4.4 | 6.5 | – | – | –
C#CCn1nnc2c(-c3nnc(-c4ccccc4)o3)ncn2c1=O [WW-042, 8-(5-Phenyl-1,3,4-oxadiazol-2-yl)-3-(prop-2-ynyl)imidazo[5,1-d][1,2,3,5]tetrazin-4(3H)-one] | < 45 | < 70 | < 75 | < 60 | – | – | –
C#CCn1nnc2c(-c3nc4ccccc4[nH]3)ncn2c1=O [WW-063, 8-(1H-Benzo[d]imidazol-2-yl)-3-(prop-2-ynyl)imidazo[5,1-d][1,2,3,5]tetrazin-4(3H)-one] | < 45 | < 70 | < 75 | < 60 | – | – | –
Cn1nnc2c(-c3nc(-c4ccsc4)cs3)ncn2c1=O [WW-012, 3-Methyl-8-(4-(thiophen-3-yl)thiazol-2-yl)imidazo[5,1-d][1,2,3,5]tetrazin-4(3H)-one] | < 45 | < 70 | < 75 | < 60 | – | – | –
C#CCn1nnc2c(-c3nc(-c4ccccc4)cn3C)ncn2c1=O [WW-052, 8-(1-Methyl-4-phenyl-1H-imidazol-2-yl)-3-(prop-2-ynyl)imidazo[5,1-d][1,2,3,5]tetrazin-4(3H)-one] | < 45 | < 70 | < 75 | < 60 | – | – | –
Cn1nnc2c(-c3nc(-c4ccccc4)co3)ncn2c1=O [WW-037, 3-Methyl-8-(4-phenyloxazol-2-yl)imidazo[5,1-d][1,2,3,5]tetrazin-4(3H)-one] | < 45 | < 70 | < 75 | < 60 | – | – | –
Cn1nnc2c(-c3nc(-c4ccccc4)cs3)ncn2c1=O [WW-002] | < 45 | < 70 | < 75 | < 60 | – | – | –
C#CCn1nnc2c(-c3nc(-c4nccs4)cs3)ncn2c1=O [WW-028, 8-(2,4′-Bithiazol-2′-yl)-3-(prop-2-ynyl)imidazo[5,1-d][1,2,3,5]tetrazin-4(3H)-one] | 54 | < 70 | < 75 | < 60 | 56.5 | 50 | 35.1
C#CCn1nnc2c(-c3nc(-c4ccccc4)cs3)ncn2c1=O [WW-004, 8-(4-phenylthiazol-2-yl)-3-(prop-2-ynyl)imidazo[5,1-d][1,2,3,5]tetrazin-4(3H)-one] | < 45 | < 70 | < 75 | < 60 | – | – | –
C[S+]([O-])Cn1nnc2c(-c3nc(-c4ccccc4)cs3)ncn2c1=O (centres unmarked) [WW-031, 3-(methylsulfinylmethyl)-8-(4-phenylthiazol-2-yl)imidazo[5,1-d][1,2,3,5]tetrazin-4(3H)-one] | < 45 | < 70 | < 75 | < 60 | – | – | –
Cn1nnc2c(-c3nc(-c4ccccc4)c[nH]3)ncn2c1=O [WW-049, 3-Methyl-8-(4-phenyl-1H-imidazol-2-yl)imidazo[5,1-d][1,2,3,5]tetrazin-4(3H)-one] | < 45 | < 70 | < 75 | < 60 | – | – | –
Cn1nnc2c(-c3nc(-c4ccc(F)cc4)cs3)ncn2c1=O [WW-001, 8-(4-(4-Fluorophenyl)thiazol-2-yl)-3-methylimidazo[5,1-d][1,2,3,5]tetrazin-4(3H)-one] | < 45 | < 70 | < 75 | < 60 | – | – | –
COCn1nnc2c(C(=O)Nc3ccccc3)ncn2c1=O [LL-002, 3-(Methoxymethyl)-4-oxo-N-phenyl-3,4-dihydroimidazo[5,1-d][1,2,3,5]tetrazine-8-carboxamide] | 55.3 | 43.8 | 36.3 | 52.3 | – | – | –
Cn1nnc2c(-c3nc4ccccc4s3)ncn2c1=O [WW-058, 8-(Benzo[d]thiazol-2-yl)-3-methylimidazo[5,1-d][1,2,3,5]tetrazin-4(3H)-one] | < 45 | < 70 | < 75 | < 60 | – | – | –
Cn1nnc2c(C(N)=O)ncn2c1=O [TMZ, temozolomide, reference compound] | 45.6 | 526 | 72.9 | 395 | – | – | –
Cn1nnc2c(-c3nc(-c4cccs4)c[nH]3)ncn2c1=O [WW-048, 3-Methyl-8-(4-(thiophen-2-yl)-1H-imidazol-2-yl)imidazo[5,1-d][1,2,3,5]tetrazin-4(3H)-one] | < 45 | < 70 | < 75 | < 60 | – | – | –
